Reference: patent US6407248B1, “α-unsaturated amines, their production and use” (Takeda Chemical Industries, Ltd., priority 1987, dated 2002)

Assays:
[1] = test system: Brown Planthoppers (Nilaparvata lugens); test: Effect against brown planthoppers (foliar spray on rice seedlings); type: in vivo; details: Nilaparvata lugens, foliar, 168 h, read-out: % Mortality after 7 days
Method: Effect Against Brown Planthoppers (Nilaparvata lugens)
An emulsifiable concentrate of the compound of the invention, prepared in the same manner as Example 112 below, was diluted with water to a concentration of 500 ppm and sprayed over the stems and leaves of rice seedlings in the 2-leaf stage at the rate of 10 ml per paper pot. Water was put in test tubes and the treated rice seedlings were placed therein. Then, 10 brown planthopper larvae were released in each tube, which was then capped with an aluminum cap. The test tubes were maintained in an incubator at 25° C. and the dead insects were counted 7 days after release. The % mortality was calculated using the following formula. [formula]

Row | SMILES | melting point | mortality at 500 µg/mL [1] [%]
1 | CSC(=C[N+](=O)[O-])NCc1cccnc1 | 129 to 130 °C | –
2 | O=[N+]([O-])C=C(NCc1cccnc1)NCc1cccnc1 | 141 to 143 °C | –
3 | NC(=C[N+](=O)[O-])NCc1cccnc1 | 177 to 178 °C (dec.) | –
4 | CCCSCCNC(=C[N+](=O)[O-])NCc1cccnc1 | 93 to 94 °C | –
5 | O=[N+]([O-])C=C(NCCO)NCc1cccnc1 | 161 to 163 °C | –
6 | COC(CNC(=C[N+](=O)[O-])NCc1cccnc1)OC | 96 to 98 °C | –
7 | O=[N+]([O-])C=C(NCc1cccnc1)NCC(F)(F)F | 164 to 165 °C | –
8 | O=[N+]([O-])C=C(NCc1cccnc1)N1CCOCC1 | 102 to 103 °C | –
9 | CC(C)NC(=C[N+](=O)[O-])NCc1cccnc1 | 148 to 150 °C | –
10 | CCCCNC(=C[N+](=O)[O-])NCc1cccnc1 | 110 to 112 °C | –
11 | CCCCCNC(=C[N+](=O)[O-])NCc1cccnc1 | 97 to 98 °C | –
12 | O=[N+]([O-])C=C(NCc1cccnc1)Nc1ccccc1 | 217 to 218 °C | –
13 | CN(C)C(=C[N+](=O)[O-])N(C=O)Cc1ccc(Cl)nc1 [Compound 113, 1-[N-(6-Chloro-3-pyridylmethyl)-N-formyl]amino-1-dimethylamino-2-nitroethylene] | – | 100
14 | CCOC(=O)C(=C(NC)NCc1ccc(Cl)nc1)[N+](=O)[O-] [Compound 116, 1-(6-Chloro-3-pyridylmethyl)amino-1-methylamino-2-ethoxycarbonyl-2-nitroethylene] | – | 100
15 | CNC(NCc1ccc(Cl)nc1)=C(C(=S)NS(C)(=O)=O)[N+](=O)[O-] [Compound 117] | – | 100
16 | CNC(=C[N+](=O)[O-])NCc1ccc(Br)nc1 [Compound 118, 1-N-(6-Bromo-3-pyridylmethyl)amino-1-methylamino-2-nitroetylene] | – | 100
17 | CN(C=O)C(=C[N+](=O)[O-])N(C)Cc1cnc(Cl)s1 [Compound 121, 1-[N-(2-Chloro-5-thiazolylmethyl)-N-methyl)amino-1-(N-formyl-N-methyl)amino-2-nitroethylene] | – | 100
18 | CCN(Cc1cnc(Cl)s1)C(=C[N+](=O)[O-])N(C)C=O [Compound 122, 1-[N-(2-Chloro-5-thiazolylmethyl)-N-ethyl) amino-1-(N-formyl-N-methyl)amino-2-nitroethylene] | – | 100
19 | CNC(=C[N+](=O)[O-])N(C=O)Cc1cnc(Cl)s1 [Compound 124, 1-[N-(2-chloro-5-thiazolylmethyl)-N-formyl]amino-1-methylamino-2-nitroethylene] | – | 100
20 | CN(C=O)C(=C[N+](=O)[O-])N(C)Cc1ccc(Br)nc1 [Compound 125, 1-[N-(6-Bromo-3-pyridylmethyl)-N-methyl]amino-1-(N-formyl-N-methyl)amino-2-nitroethylene] | – | 100
21 | CCN(Cc1ccc(Br)nc1)C(=C[N+](=O)[O-])N(C)C=O [Compound 126, 1-[N-(6-Bromo-3-pyridylmethyl)-N-ethyl]amino-1-(N-formyl-N-methyl)amino-2-nitroethylene] | – | 100
22 | CN(C)C(=C[N+](=O)[O-])NCc1ccc(Br)nc1 [Compound 127, 1-N-(6-Bromo-3-pyridylmethyl)amino-1-dimethylamino-2-nitroethylene] | – | 100
23 | CN(C)C(=C[N+](=O)[O-])N(C=O)Cc1ccc(Br)nc1 [Compound 128, 1-[N-(6-Bromo-3-pyridylmethyl)-N-formyl]amino-1-dimethylamino-2-nitroethylene] | – | 100
24 | CN(Cc1ccc(Br)nc1)C(N)=C[N+](=O)[O-] [Compound 129, 1-Amino-1-[N-(6-bromo-3-pyridylmethyl)-N-methyl]amino-2-nitroethylene] | – | 100
25 | CN(C)C(=C[N+](=O)[O-])N(C=O)Cc1cnc(Cl)s1 [Compound 130, 1-[N-(2-Chloro-5-thiazolylmethyl)-N-formyl]amino-1-dimethylamino-2-nitroethylene] | – | 100
26 | CNC(=C[N+](=O)[O-])N(Cc1ccc(Cl)nc1)CC(F)(F)F [Compound 131, 1-[N-(6-Chloro-3-pyridylmethyl)-N-(2,2,2-trifluoroethyl)]amino-1-methylamino-2-nitroethylene] | – | 100
